Test results taken from patent publication US20260274895A1, “DE NOVO DESIGNED MEMBRANE-TRAVERSING AND ORALLY BIOAVAILABLE MACROCYCLES” (UNIVERSITY OF WASHINGTON, priority 2022, published 2026).
Where a SMILES comes first, the peptide text is derived from it. [ ]: non-standard residue; d: D form. NMeF = CN[C@@H](Cc1ccccc1)C(=O)O; NMeI = CC[C@H](C)[C@H](NC)C(=O)O; dNMeF = CN[C@H](Cc1ccccc1)C(=O)O; NMeL = CN[C@@H](CC(C)C)C(=O)O; dNMeL = CN[C@H](CC(C)C)C(=O)O; dNMeV = CN[C@@H](C(=O)O)C(C)C; NMeV = CN[C@H](C(=O)O)C(C)C; NMeA = CN[C@@H](C)C(=O)O; dNMeA = CN[C@H](C)C(=O)O; Sar = CNCC(=O)O

Details: for PAMPA_Papp_Avg (apparent permeability): PAMPA

Row | Compound | PAMPA_Papp_Avg (apparent permeability) [cm/s] | membrane permeability in PAMPA (in words)
1 | CC(C)C[C@@H]1NC(=O)[C@@H](CC(C)C)N(C)C(=O)[C@@H]2CCCN2C(=O)[C@H](CC(C)C)N(C)C(=O)[C@@H](C)NC(=O)[C@@H](CC(C)C)N(C)C(=O)[C@@H]2CCCN2C(=O)CN(C)C(=O)[C@H](CC(C)C)N(C)C(=O)[C@H](Cc2ccccc2)NC1=O [Design D10.57, *L*GP*la*LP*lLF] (cyclo(F[NMeL][Sar]P[dNMeL][dA][NMeL]P[dNMeL]L)) | 3.05e-06 | –
2 | CC[C@H](C)[C@@H]1NC(=O)[C@@H](CC(C)C)N(C)C(=O)[C@H](CC(C)C)N(C)C(=O)[C@@H](C)N(C)C(=O)[C@@H](Cc2ccccc2)NC(=O)[C@H](C(C)C)NC(=O)[C@@H](C)NC(=O)[C@@H]2CCCN2C(=O)[C@H]2CCCN2C1=O [Design D9.10, Vf*a*L*lIpPa] (cyclo([dA]V[dF][dNMeA][NMeL][dNMeL]I[dP]P)) | 8.26e-07 | –
3 | CC(C)C[C@@H]1C(=O)N[C@@H](C(C)C)C(=O)N[C@@H](C)C(=O)N2CCC[C@H]2C(=O)N2CCC[C@@H]2C(=O)N[C@@H](C(C)C)C(=O)N[C@@H](C)C(=O)N(C)[C@@H](CC(C)C)C(=O)N1C [Design D8.22, APpVA*L*lV] (cyclo(A[NMeL][dNMeL]VAP[dP]V)) | 2.15e-07 | –
4 | CC[C@H](C)[C@H]1C(=O)N[C@H](C)C(=O)N[C@@H](CC(C)C)C(=O)N[C@@H](C(C)C)C(=O)N2CCC[C@@H]2C(=O)N(C)[C@@H](CC(C)C)C(=O)N[C@@H](C(C)C)C(=O)N2CCC[C@H]2C(=O)N(C)[C@H](CC(C)C)C(=O)N[C@@H](C(C)C)C(=O)N1C [Design D10.19, aLVp*LVP*lV*I] (cyclo(LV[dP][NMeL]VP[dNMeL]V[NMeI][dA])) | 6.36e-06 | –
5 | CC(C)C[C@@H]1NC(=O)[C@H](CC(C)C)N(C)C(=O)[C@H]2CCCN2C(=O)[C@@H](C)NC(=O)[C@@H](C)N(C)C(=O)[C@@H](C(C)C)NC(=O)[C@@H](CC(C)C)N(C)C(=O)[C@@H]2CCCN2C1=O [Design D8.30, ap*LLP*lv*a] (cyclo(LP[dNMeL][dV][dNMeA][dA][dP][NMeL])) | 4.32e-06 | –
6 | CC[C@@H](C)[C@H]1NC(=O)[C@@H]2CCCN2C(=O)[C@@H](CC(C)C)N(C)C(=O)[C@@H](C(C)C)NC(=O)[C@@H]2CCCN2C(=O)[C@@H](CC(C)C)N(C)C(=O)[C@H](C)N(C)C(=O)[C@@H](C)NC1=O [Design D8.18, ia*A*lPv*lP] (cyclo([NMeA][dNMeL]P[dV][dNMeL]P[dI][dA])) | 1.04e-06 | –
7 | CC(C)C[C@H]1C(=O)N2CCC[C@@H]2C(=O)N[C@@H](Cc2ccccc2)C(=O)N2CCC[C@H]2C(=O)N(C)[C@H](C(C)C)C(=O)N[C@H](Cc2ccccc2)C(=O)N1C [Design D6.10, *vf*LpFP] (cyclo(FP[dNMeV][dF][NMeL][dP])) | 1.16e-05 | –
8 | CC(C)C[C@@H]1NC(=O)[C@@H]2CCCN2C(=O)[C@H]2CCCN2C(=O)[C@H](CC(C)C)NC(=O)[C@H](C)N(C)C(=O)[C@H]2CCCN2C(=O)[C@@H](CC(C)C)NC1=O [Design D7.6, lp*ALpPL] (cyclo(L[dL][dP][NMeA]L[dP]P)) | 3.62e-06 | –
9 | CC(C)C[C@@H]1NC(=O)[C@@H](CC(C)C)NC(=O)[C@H]2CCCN2C(=O)[C@H](CC(C)C)NC(=O)[C@@H](CC(C)C)NC(=O)[C@H](CC(C)C)NC(=O)[C@@H]2CCCN2C(=O)[C@@H](C)NC1=O [Design D8.1, lLplLaPL] (cyclo(L[dA]PL[dL]L[dP][dL])) | 6.94e-06 | most permeable 8 residue design in PAMPA
10 | CC[C@H](C)[C@@H]1NC(=O)[C@H]2CCCN2C(=O)[C@@H]2CCCN2C(=O)[C@H](CC(C)C)NC(=O)[C@@H](C(C)C)NC(=O)[C@@H](CC(C)C)N(C)C(=O)[C@@H]2CCCN2C1=O [Design D7.1, P*lvLPpI] (cyclo(IP[dNMeL][dV]LP[dP])) | 2.93e-06 | –
11 | CC(C)C[C@@H]1NC(=O)[C@@H](Cc2ccccc2)NC(=O)[C@@H](CC(C)C)N(C)C(=O)[C@@H]2CCCN2C(=O)[C@H](C)NC(=O)[C@@H](CC(C)C)N(C)C(=O)[C@@H]2CCCN2C(=O)[C@H](CC(C)C)N(C)C(=O)[C@H](CC(C)C)N(C)C(=O)[C@H](C(C)C)NC1=O [Design D10.20, P*lAP*lfLV*L*L] (cyclo(AP[dNMeL][dF]LV[NMeL][NMeL]P[dNMeL])) | 2.59e-06 | –
12 | CC(C)[C@@H]1NC(=O)[C@@H]2CCCN2C(=O)[C@@H]2CCCN2C(=O)[C@@H](Cc2ccccc2)NC(=O)[C@@H]2CCCN2C(=O)[C@@H](Cc2ccccc2)NC1=O [Design D6.5, PPVfPf] (cyclo(PPV[dF]P[dF])) | 2.41e-06 | –

Continued, values first:

Row | PAMPA_Papp_Avg (apparent permeability) [cm/s] | membrane permeability in PAMPA (in words) | Compound
13 | 5.69e-06 | – | CC[C@H](C)[C@@H]1NC(=O)[C@@H](C(C)C)NC(=O)[C@@H](CC(C)C)N(C)C(=O)[C@H]2CCCN2C(=O)[C@@H](CC(C)C)NC(=O)[C@@H](CC(C)C)N(C)C(=O)[C@H](CC(C)C)NC(=O)[C@H]2CCCN2C(=O)[C@H](C)N(C)C(=O)[C@H]2CCCN2C1=O [Design D10.41, p*lvIp*ApL*ll] (cyclo(I[dP][NMeA][dP]L[dNMeL][dL][dP][dNMeL][dV]))
14 | 1.12e-06 | – | CC[C@H](C)[C@@H]1NC(=O)[C@H]2CCCN2C(=O)[C@@H]2CCCN2C(=O)[C@H](C(C)C)NC(=O)[C@@H](C(C)C)NC(=O)[C@H](Cc2ccccc2)N(C)C(=O)[C@H]2CCCN2C(=O)[C@@H](CC(C)C)N(C)C(=O)[C@@H](CC(C)C)NC1=O [Design D9.42, pIl*lp*FvVP] (cyclo(I[dL][dNMeL][dP][NMeF][dV]VP[dP]))
15 | 4.51e-06 | – | CC[C@@H](C)[C@H]1NC(=O)[C@@H](Cc2ccccc2)NC(=O)[C@@H](CC(C)C)NC(=O)[C@@H]2CCCN2C(=O)[C@H]2CCCN2C(=O)[C@H](CC(C)C)NC(=O)[C@H](CC(C)C)NC(=O)[C@@H](CC(C)C)N(C)C(=O)[C@H](C)N(C)C(=O)[C@H]2CCCN2C1=O [Design D10.34, fip*A*lLLpPl] (cyclo([dL][dF][dI][dP][NMeA][dNMeL]LL[dP]P))
16 | 4.87e-07 | – | CC[C@H](C)[C@@H]1NC(=O)[C@@H](Cc2ccccc2)NC(=O)[C@@H](C)NC(=O)[C@@H](C(C)C)NC(=O)[C@H](CCSC)NC(=O)[C@@H]2CCCN2C(=O)[C@H]2CCCN2C(=O)[C@@H]2CCCN2C(=O)[C@@H](C)N(C)C(=O)[C@@H](CC(C)C)N(C)C1=O [Design D10.45, vafI*l*aPpPM] (cyclo(M[dV][dA][dF]I[dNMeL][dNMeA]P[dP]P))
17 | 1.7e-07 | – | CC(C)C[C@@H]1NC(=O)[C@H](C)NC(=O)[C@@H]2CCCN2C(=O)[C@H]2CCCN2C(=O)[C@H](Cc2ccccc2)NC(=O)[C@H]2CCCN2C(=O)[C@@H](Cc2ccccc2)N(C)C(=O)[C@@H]2CCCN2C(=O)[C@@H](C)NC(=O)[C@H](CC(C)C)NC1=O [Design D10.49, aP*fpFpPALL] (cyclo(ALL[dA]P[dNMeF][dP]F[dP]P))
18 | 7.89e-07 | – | CC[C@H](C)[C@@H]1NC(=O)[C@H](C(C)C)N(C)C(=O)[C@H]2CCCN2C(=O)[C@H]([C@@H](C)CC)NC(=O)[C@@H](CC(C)C)N(C)C(=O)[C@@H](C)NC(=O)[C@@H]2CCCN2C(=O)[C@H]2CCCN2C(=O)[C@H](CC(C)C)NC(=O)[C@@H](Cc2ccccc2)NC(=O)[C@H](CC(C)C)NC(=O)[C@H]2CCCN2C1=O [Design D12.3, p*VIpLfLpPa*lI] (cyclo([dA][dNMeL]I[dP][NMeV]I[dP]L[dF]L[dP]P))
